Test results from PubChem BioAssay AID504313 (Emory University Molecular Libraries Screening Center, 2011).
The source made the active and inactive calls. The rule behind the calls is not given here.

Target: X-box-binding protein 1 (Homo sapiens) (UniProt P17861)
Test: inhibitors of XBP1 reporter signal, dose response, counter-screen, cell-based (AID 504313);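 note: CHO cells carrying an XBP1 reporter stimulated with tunicamycin; potency is for inhibition of the tunicamycin-induced reporter signal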
Settings: XBP1 reporter cell assay, percent of control

SMILES	IC50
COc1ccccc1-c1cc(C(F)(F)F)nc(S(=O)(=O)CCCC(=O)Nc2cccnc2Cl)n1	> 10 µM (inactive)
C=C1C(=O)O[C@H]2C[C@@H](C)[C@@H]3C=CC(=O)[C@@]3(C)C[C@H]12	inactive
COC(=O)c1c(NC(=O)Nc2ccc(Cl)cc2)sc(C)c1C	> 10 µM (inactive)
O=C(Cc1ccccc1)Nc1cccc(N2C(=O)C=CC2=O)c1	inactive
O=C(Nc1ccc(Cl)cc1)Nc1ccc(N2CCCC2)c(S(=O)(=O)Nc2ccccc2Cl)c1	inactive
O=C(OCn1ncc(Br)c(Br)c1=O)c1ccccc1Cl	4.81 µM
CCCCCCn1c(=O)c(C(=O)N/N=C/c2cccc(F)c2)c(O)c2ccccc21	inactive
NC(=O)c1ccc(C(F)(F)F)n(Cc2ccc(Cl)cc2)c1=O	inactive
COc1ccc(N=CC2=C(O)c3ccccc3C2=O)c(OC)c1	inactive
Nc1ccc(N2CCCCCC2)cc1	> 10 µM (inactive)
CCCCCCCCCCCCCCCC[n+]1ccc(/C=N/O)cc1	inactive
COC(=O)c1cc(NC(=S)Nc2cc(Cl)cc(Cl)c2)cc(C(=O)OC)c1	> 10 µM (inactive)
COc1ccc(Cn2c(SCc3ccccc3C)nc3cc(OC)c(OC)cc3c2=N)cc1	> 10 µM (inactive)
CC(/C=C1\SC(=O)N(CCCC(=O)O)C1=O)=C\c1ccccc1	< 0.16 µM
CCOc1cc(S(=O)(=O)Nc2ccccc2CC)ccc1Cl	> 10 µM (inactive)
Cc1nc2ccccn2c1C(=O)N=Nc1c(O)n(CCC(C)C)c2ccccc12	> 10 µM (inactive)
CCCCc1c(C)nn(-c2nnc3c4ccccc4n(CC)c3n2)c1C	> 10 µM (inactive)
COC(=O)c1ccc2c(c1)C(C)(C)C(/C=C/c1ccc(O)cc1)=[N+]2C	> 10 µM (inactive)
Nc1c(C(=O)Nc2nc3ccccc3s2)sc2nc(-c3cccs3)ccc12	inactive
C=CCN1C(=O)/C(=C/c2ccc(OC(C)=O)c(OCC)c2[N+](=O)[O-])SC1=S	inactive
Cc1ccc2c(c1)c1c(n2CC(O)Cn2c(C)nc3ccccc32)CCCC1 (centres undefined)	inactive
CC(C)(C)c1ccc(OCCNC(=S)Nc2ccccc2)cc1	inactive
CCCCC(CC)Cn1c(N)c(C#N)c2nc3ccccc3nc21 (centres undefined)	inactive
Cn1c(=O)c(C(=O)Nc2ncccc2O)c(O)c2ccccc21	> 10 µM (inactive)
O=C(CN1C(=O)c2ccccc2S1(=O)=O)c1ccc2c(c1)OCCCO2	0.37 µM

SMILES	IC50
O=c1c(Cl)nc2cc(Cl)ccc2n1CCNc1ncc(C(F)(F)F)cc1Cl	4.7 µM
CCN1CCN(Cc2ccc(NC(=O)c3ccc(C)c(NC(=O)c4c[nH]c5cc(C(F)(F)F)ccc5c4=O)c3)cc2C(F)(F)F)CC1	< 0.16 µM
CCOc1cc(CNc2ccc(O)cc2)ccc1OCc1ccc(Cl)cc1Cl	inactive
CCNC(=S)N/N=C/c1cc(Br)cc(Br)c1OC	> 10 µM (inactive)
CC1CCC(n2c(=S)[nH]c3ccccc3c2=O)CC1 (centres undefined)	> 10 µM (inactive)
C=CCn1c(CCc2cc(C(C)(C)C)c(O)c(C(C)(C)C)c2)n[nH]c1=S	inactive
COc1cc(OC)cc(-c2nc3ccccc3c(=O)n2OC(=O)c2ccc(Br)cc2)c1	> 10 µM (inactive)
OC(CNCC1CCCO1)Cn1c2ccc(Br)cc2c2cc(Br)ccc21 (centres undefined)	> 10 µM (inactive)
Cc1ccc(NC(=O)CSc2nc3ccccc3c3nc(CCc4c(C)n[nH]c4C)nn23)cc1F	> 10 µM (inactive)
C/C(=C\c1ccco1)C1C(C#N)=C(N)Oc2n[nH]c(-c3ccc(C)cc3)c21 (centres undefined)	> 10 µM (inactive)
COc1cccc(-n2nnnc2S(C)(=O)=O)c1	inactive
O=C(Nc1ccc([N+](=O)[O-])cc1)Nc1nc(-c2ccc(Cl)s2)cs1	2.53 µM
CCCCn1c(NS(=O)(=O)c2ccc(C)cc2)c(S(=O)(=O)c2ccccc2)c2nc3ccccc3nc21	> 10 µM (inactive)
CCSc1nc2ccccc2n1C(=O)/C=C\c1ccc(OC)c(OC)c1	4.66 µM
COc1ccc(Cn2c(SCc3cc(C)ccc3C)nc3cc(OC)c(OC)cc3c2=N)cc1	inactive
CCCC(=O)NC(NC(=S)Nc1ccc(N=Nc2ccccc2)cc1)C(Cl)(Cl)Cl (centres undefined)	> 10 µM (inactive)
CCN=C1NN=C(c2cc(C)n(Cc3ccco3)c2C)CS1	< 0.16 µM
FC(F)(F)c1cccc(CN2CCC(c3cc(-c4cccs4)n[nH]3)CC2)c1	> 10 µM (inactive)
O=C(CCl)Nc1cn(-c2ccccc2)nc1-c1ccccc1	inactive
CC(NC(=O)/C(C#N)=C/c1ccc(Cl)c([N+](=O)[O-])c1)c1ccccc1 (centres undefined)	> 10 µM (inactive)
COc1cc(OC)nc(-n2ncc(Br)c(Br)c2=O)n1	1.99 µM
CCc1ccc2c(c1)C(c1ccc([N+](=O)[O-])cc1)=NNC(c1ccc(C)cc1)=N2	> 10 µM (inactive)
Cc1cccc(NC(=O)CSc2nc(C)c(CC(=O)c3ccc(Br)cc3)c(C)c2C#N)c1C	inactive
COC(=O)CS(=O)(=O)c1nnc([C@H](Cc2ccccc2)NC(=O)OC(C)(C)C)o1	inactive
